According to patent US20230049952A1, “METHODS AND COMPOUNDS FOR RESTORING MUTANT P53 FUNCTION” (PMV Pharmaceuticals, Inc., priority 2020, published 2023):

Tests used:
[1] = molecular target: P-GP (Homo sapiens, UniProt P08183); assay: in vitro; conditions: pH 7.4
[2] = system: human hepatocytes; assay: metabolic stability in cryopreserved hepatocytes; type: in vitro ADME
Method: (§1) Mixed-gender human cryopreserved hepatocytes, male Sprague-Dawley rat cryopreserved hepatocytes, male CD-1 mouse cryopreserved hepatocytes, male beagle dog cryopreserved hepatocytes, and male cynomolgus monkey cryopreserved hepatocytes were used for the study. The hepatocytes were thawed, pooled into Krebs Henseleit buffer (KHB, pH 7.4), and kept on ice prior to the experiments. […] Each experiment was performed in triplicate. The final DMSO content in the incubation mixture was ≤0.1%. […] Positive controls, testosterone (1 μM) and 7-hydroxycoumarin (7-HC) (100 μM), were performed in parallel to confirm the activity of the hepatocytes. […] Aliquots of testosterone were withdrawn (n=1) at 0, 5, 15, 30, 60, and 120 minutes. Aliquots of 7-HC were withdrawn (n=1) at 0 and 15 minutes. The reaction was immediately terminated by adding three volumes of ice-cold MeCN containing IS. The samples were then mixed and spun by centrifuge to precipitate proteins. An aliquot of the supernatant was then diluted with water. Calibration standards for the analysis of 7-HC metabolites were prepared in matched matrix. […] All samples were analyzed by LC-MS/MS. The peak area response ratio (PARR) vs. IS was compared to the PARR at time 0 to determine the percent remaining at each time point. Half-lives and clearance values were calculated using GraphPad software, fitting to a single-phase exponential decay equation.
(§2) Mixed-gender human cryopreserved hepatocytes, male Sprague-Dawley rat cryopreserved hepatocytes, male CD-1 mouse cryopreserved hepatocytes, male beagle dog cryopreserved hepatocytes, and male cynomolgus monkey cryopreserved hepatocytes were thawed and pooled into KHB buffer (pH 7.4) and kept on ice prior to the experiments. […] Each experiment was performed in triplicate. The final DMSO content in the incubation mixture was ≤0.1%.
(§3) Positive controls, testosterone (1 μM) and 7-hydroxycoumarin (7-HC) (100 μM), were performed in parallel to confirm the activity of the hepatocytes. […] Aliquots of testosterone were withdrawn (n=1) at 0, 5, 15, 30, 60, and 120 minutes. Aliquots of 7-HC were withdrawn (n=1) at 0 and 15 minutes. The reaction was immediately terminated by adding three volumes of ice-cold MeCN containing IS. The samples were then mixed and spun by centrifuge to precipitate proteins. An aliquot of the supernatant was then diluted with water. Calibration standards for the analysis of 7-HC metabolites were prepared in matched matrix. […] All samples were analyzed by LC-MS/MS. Analytical conditions are outlined below. The peak area response ratio (PARR) vs. IS was compared to the PARR at time 0 to determine the percent remaining at each time point. Half-lives and clearance values were calculated using GraphPad software, fitting to a single-phase exponential decay equation.

[3] = metabolic stability in cryopreserved hepatocytes; type: in vitro ADME, rat
Method: as §1, §2, §3

[4] = metabolic stability in cryopreserved hepatocytes; type: in vitro ADME, mouse
Method: as §1, §2, §3

[5] = metabolic stability in cryopreserved hepatocytes; type: in vitro ADME, dog
Method: Mixed-gender human cryopreserved hepatocytes, male Sprague-Dawley rat cryopreserved hepatocytes, male CD-1 mouse cryopreserved hepatocytes, male beagle dog cryopreserved hepatocytes, and male cynomolgus monkey cryopreserved hepatocytes were used for the study. The hepatocytes were thawed, pooled into Krebs Henseleit buffer (KHB, pH 7.4), and kept on ice prior to the experiments. […] Each experiment was performed in triplicate. The final DMSO content in the incubation mixture was ≤0.1%. […] Aliquots of testosterone were withdrawn (n=1) at 0, 5, 15, 30, 60, and 120 minutes. Aliquots of 7-HC were withdrawn (n=1) at 0 and 15 minutes. The reaction was immediately terminated by adding three volumes of ice-cold MeCN containing IS. The samples were then mixed and spun by centrifuge to precipitate proteins. An aliquot of the supernatant was then diluted with water. Calibration standards for the analysis of 7-HC metabolites were prepared in matched matrix. […] All samples were analyzed by LC-MS/MS. The peak area response ratio (PARR) vs. IS was compared to the PARR at time 0 to determine the percent remaining at each time point. Half-lives and clearance values were calculated using GraphPad software, fitting to a single-phase exponential decay equation.
as §2
Aliquots of testosterone were withdrawn (n=1) at 0, 5, 15, 30, 60, and 120 minutes. Aliquots of 7-HC were withdrawn (n=1) at 0 and 15 minutes. The reaction was immediately terminated by adding three volumes of ice-cold MeCN containing IS. The samples were then mixed and spun by centrifuge to precipitate proteins. An aliquot of the supernatant was then diluted with water. Calibration standards for the analysis of 7-HC metabolites were prepared in matched matrix. […] All samples were analyzed by LC-MS/MS. Analytical conditions are outlined below. The peak area response ratio (PARR) vs. IS was compared to the PARR at time 0 to determine the percent remaining at each time point. Half-lives and clearance values were calculated using GraphPad software, fitting to a single-phase exponential decay equation.

[6] = metabolic stability in cryopreserved hepatocytes; type: in vitro ADME, cynomolgus monkey
Method: as §1, §2, §3

[7] = in vitro; conditions: male, plasma
Method: Studies were carried out in mixed-gender human plasma, male Sprague-Dawley rat plasma, male CD-1 mouse plasma, male Beagle dog plasma, and male Cynomolgus monkey plasma collected on sodium heparin. A Rapid Equilibrium Dialysis (RED) device was used for all experiments. […] Blank PBS (500 μL) was added to each corresponding receiver chamber. The device was then placed into an enclosed heated rocker that was pre-warmed to 37° C., and allowed to incubate for four hours. After 4 hours of incubation, both sides were sampled.
Aliquots (50 μL for donor, 200 μL for receiver) were removed from the chambers and placed into a 96-well plate. Plasma (50 μL) was added to the wells containing the receiver samples, and 200 μL of PBS was added to the wells containing the donor samples. Two volumes of acetonitrile were added to each well, and the plate was mixed and then centrifuged at 3,000 rpm for 10 minutes. Aliquots of the supernatant were removed, and analyzed by LCMS/MS. Calibration standards were prepared in a matched matrix and prepared similarly to the assay samples. Binding and recovery values were calculated as follows: % Bound=[(Concentration in Donor−Concentration in Receiver)/(Concentration in Donor)]×100; % Recovery=[(Concentration in Donor+Concentration in Receiver)/(Nominal Dosing Concentration)]×100.

[8] = molecular target: T1, CYP2B6 (Homo sapiens, UniProt P20813); assay: CYP inhibition in human liver microsomes; type: in vitro ADME; parameters: from tissue; host or cells: pooled human liver microsomes, 200 donors; conditions: both sexes, pooled human liver microsomes, pH 7.4, HLM, read-out: % of Control Enzyme Activity
T1 sequence (P20813 1-491): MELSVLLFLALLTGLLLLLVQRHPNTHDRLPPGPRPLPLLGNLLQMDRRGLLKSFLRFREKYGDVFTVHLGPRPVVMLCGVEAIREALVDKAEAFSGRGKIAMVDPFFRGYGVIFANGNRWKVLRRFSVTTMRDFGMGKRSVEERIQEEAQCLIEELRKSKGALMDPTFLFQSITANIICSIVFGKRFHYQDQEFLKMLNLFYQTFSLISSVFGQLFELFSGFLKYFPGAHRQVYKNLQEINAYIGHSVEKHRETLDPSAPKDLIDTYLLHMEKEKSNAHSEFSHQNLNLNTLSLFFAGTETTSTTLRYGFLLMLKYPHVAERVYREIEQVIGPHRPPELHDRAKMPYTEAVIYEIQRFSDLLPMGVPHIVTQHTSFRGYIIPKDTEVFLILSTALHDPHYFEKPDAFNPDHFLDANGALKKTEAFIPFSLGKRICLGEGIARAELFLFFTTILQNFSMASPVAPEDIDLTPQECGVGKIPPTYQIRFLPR
Method: The HLMs were stored at −80° C. until use.
Negative (vehicle) controls were conducted without a test article.

[9] = molecular target: T1, CYP2B6; assay: time-dependent CYP inhibition in human liver microsomes (IC50 shift); conditions: both, pooled human liver microsomes, pH 7.4, % of Control Enzyme Activity; for activity at 20 min, 0.37 µM: 0.370 μM
[10] = Human cryopreserved hepatocytes, positive control 7-hydroxycoumarin 100 μM
[11] = Human hepatocytes, from 7-hydroxycoumarin (7-HC) 100 μM positive control
[12] = Rat cryopreserved hepatocytes, positive control 7-hydroxycoumarin 100 μM
[13] = Rat hepatocytes, from 7-hydroxycoumarin (7-HC) 100 μM positive control
[14] = Mouse cryopreserved hepatocytes, positive control 7-hydroxycoumarin 100 μM
[15] = Mouse hepatocytes, from 7-hydroxycoumarin (7-HC) 100 μM positive control
[16] = Dog cryopreserved hepatocytes, positive control 7-hydroxycoumarin 100 μM
[17] = Dog hepatocytes, from 7-hydroxycoumarin (7-HC) 100 μM positive control
[18] = Monkey cryopreserved hepatocytes, positive control 7-hydroxycoumarin 100 μM
[19] = Monkey hepatocytes, from 7-hydroxycoumarin (7-HC) 100 μM positive control

Sequence of P-GP (P08183 whole entry): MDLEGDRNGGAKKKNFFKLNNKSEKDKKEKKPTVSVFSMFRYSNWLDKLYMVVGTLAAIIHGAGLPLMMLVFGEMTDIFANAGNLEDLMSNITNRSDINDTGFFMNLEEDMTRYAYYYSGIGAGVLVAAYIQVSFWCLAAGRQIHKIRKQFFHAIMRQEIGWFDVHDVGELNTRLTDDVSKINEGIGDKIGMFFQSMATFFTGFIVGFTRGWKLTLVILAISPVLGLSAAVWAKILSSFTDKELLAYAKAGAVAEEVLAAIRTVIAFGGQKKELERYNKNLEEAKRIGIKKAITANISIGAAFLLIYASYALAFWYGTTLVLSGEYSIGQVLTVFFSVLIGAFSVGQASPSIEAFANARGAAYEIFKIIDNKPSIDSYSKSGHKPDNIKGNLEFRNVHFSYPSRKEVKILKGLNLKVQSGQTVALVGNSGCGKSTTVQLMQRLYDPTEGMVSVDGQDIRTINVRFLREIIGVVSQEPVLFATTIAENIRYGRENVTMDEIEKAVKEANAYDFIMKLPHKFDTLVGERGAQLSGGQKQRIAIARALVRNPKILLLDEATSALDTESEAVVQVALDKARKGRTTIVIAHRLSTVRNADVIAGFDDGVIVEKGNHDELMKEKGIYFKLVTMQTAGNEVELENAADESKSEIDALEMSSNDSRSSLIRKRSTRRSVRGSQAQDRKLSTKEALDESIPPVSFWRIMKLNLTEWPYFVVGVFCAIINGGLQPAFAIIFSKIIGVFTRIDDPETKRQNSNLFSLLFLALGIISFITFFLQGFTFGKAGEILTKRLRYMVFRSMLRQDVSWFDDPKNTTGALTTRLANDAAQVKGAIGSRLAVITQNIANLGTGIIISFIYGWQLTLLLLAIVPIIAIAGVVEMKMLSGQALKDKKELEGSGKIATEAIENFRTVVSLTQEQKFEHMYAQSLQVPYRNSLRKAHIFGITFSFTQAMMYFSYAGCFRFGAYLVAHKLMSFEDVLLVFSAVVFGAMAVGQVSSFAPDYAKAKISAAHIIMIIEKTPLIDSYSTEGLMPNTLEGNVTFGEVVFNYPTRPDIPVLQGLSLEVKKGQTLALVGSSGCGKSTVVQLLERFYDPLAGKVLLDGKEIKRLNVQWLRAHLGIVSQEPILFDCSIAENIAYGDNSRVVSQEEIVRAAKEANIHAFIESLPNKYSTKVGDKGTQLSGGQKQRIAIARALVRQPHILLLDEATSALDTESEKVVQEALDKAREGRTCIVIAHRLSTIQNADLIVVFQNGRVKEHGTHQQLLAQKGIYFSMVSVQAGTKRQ

| Structure (SMILES) | Formation Rate [2, 10] [pmol/min/10^6 cells] | Formation Rate [2, 11] [pmol/min/10^6 cells] | Formation Rate [3, 12] [pmol/min/10^6 cells] | Formation Rate [3, 13] [pmol/min/10^6 cells] | Formation Rate [4, 14] [pmol/min/10^6 cells] | Formation Rate [4, 15] [pmol/min/10^6 cells] | Formation Rate [5, 16] [pmol/min/10^6 cells] | Formation Rate [5, 17] [pmol/min/10^6 cells] | Formation Rate [6, 18] [pmol/min/10^6 cells] | Formation Rate [6, 19] [pmol/min/10^6 cells] | further results |
| --- | --- | --- | --- | --- | --- | --- | --- | --- | --- | --- | --- |
| C/C=C/C[C@@H](C)C(=O)[C@H]1C(=O)N[C@@H](C(C)C)C(=O)N(C)CC(=O)N(C)[C@@H](CC(C)C)C(=O)N[C@@H](C(C)C)C(=O)N(C)[C@@H](CC(C)C)C(=O)N[C@@H](C)C(=O)N[C@H](C)C(=O)N(C)[C@@H](CC(C)C)C(=O)N(C)[C@@H](CC(C)C)C(=O)N(C)[C@@H](C(C)C)C(=O)N1C [Valspodar, valspodar] | – | – | – | – | – | – | – | – | – | – | inhibition at 120 min, 1 µM [1]: 100% |
| O=c1ccc2ccc(OS(=O)(=O)[O-])cc2o1.[K+] [Compound 7-HC-S] | 7.74 | 7.74 | 34.0 | 34 | 6.36 | 6.36 | 24.5 | 24.5 | 13.3 | 13.3 | – |
| CC(=O)CC(c1ccccc1)c1c(O)c2ccccc2oc1=O (stereo not shown) [Warfarin, warfarin] | – | – | – | – | – | – | – | – | – | – | fraction unbound at 4 h, 10 μM ([7]; Beagle, dog, % Bound Mean): 0.026; fraction unbound at 4 h, 10 μM ([7]; Beagle, dog, % Bound R1-R3): 0.027; fraction unbound at 4 h, 10 μM ([7]; CD-1, mouse, % Bound Mean): 0.217; fraction unbound at 4 h, 10 μM ([7]; CD-1, mouse, % Bound R1-R3): 0.226; fraction unbound at 4 h, 10 μM ([7]; monkey, % Bound Mean): 0.006; fraction unbound at 4 h, 10 μM ([7]; monkey, % Bound R1-R3): 0.007 |
| S=P(N1CC1)(N1CC1)N1CC1 [Thio-TEPA] | – | – | – | – | – | – | – | – | – | – | activity at 20 min, 0.123 µM ([8]; 0.123 μM): 97%; activity at 20 min, 0.37 µM ([8]; 0.370 μM): 97.3%; activity at 20 min, 3.33 µM ([8]; 3.33 μM): 69.7%; activity at 20 min, 10 µM ([8]; 10.0 μM): 44.3%; activity at 20 min, 30 µM ([8]; 30.0 μM): 25.6%; activity at 20 min, 0.37 µM ([9]; pre-incubation 30 min +NADPH): 86.4%; activity at 20 min, 3.33 µM ([9]; pre-incubation 30 min +NADPH): 37.6%; activity at 20 min, 10 µM ([9]; pre-incubation 30 min +NADPH): 18%; activity at 20 min, 30 µM ([9]; pre-incubation 30 min +NADPH): 11.7%; activity at 20 min, 0.37 µM ([9]; pre-incubation 30 min −NADPH): 92.5%; activity at 20 min, 3.33 µM ([9]; pre-incubation 30 min −NADPH): 78.5%; activity at 20 min, 10 µM ([9]; pre-incubation 30 min −NADPH): 58.6%; activity at 20 min, 30 µM ([9]; pre-incubation 30 min −NADPH): 41.4% |
| O=C(O)[C@H]1O[C@@H](Oc2ccc3ccc(=O)oc3c2)[C@H](O)[C@@H](O)[C@@H]1O [Compound 7-HC-G] | 316 | 316 | 253 | 253 | 234 | 234 | 301 | 301 | 279 | 279 | – |
